Assay results taken from ChEMBL document CHEMBL1127735, “Importance of parallel vectors and "hydrophobic collapse" of the aligned aromatic rings: discovery of a potent substance P antagonist” (J Med Chem, 1994).

Target: Substance-P receptor (Homo sapiens, UniProt P25103)
Experiment: In vitro binding affinity against substance P (NK-1) receptor in human IM-9 cell using [125I]BH-SP
Type: cell-based

Sequence of Substance-P receptor (P25103 whole entry): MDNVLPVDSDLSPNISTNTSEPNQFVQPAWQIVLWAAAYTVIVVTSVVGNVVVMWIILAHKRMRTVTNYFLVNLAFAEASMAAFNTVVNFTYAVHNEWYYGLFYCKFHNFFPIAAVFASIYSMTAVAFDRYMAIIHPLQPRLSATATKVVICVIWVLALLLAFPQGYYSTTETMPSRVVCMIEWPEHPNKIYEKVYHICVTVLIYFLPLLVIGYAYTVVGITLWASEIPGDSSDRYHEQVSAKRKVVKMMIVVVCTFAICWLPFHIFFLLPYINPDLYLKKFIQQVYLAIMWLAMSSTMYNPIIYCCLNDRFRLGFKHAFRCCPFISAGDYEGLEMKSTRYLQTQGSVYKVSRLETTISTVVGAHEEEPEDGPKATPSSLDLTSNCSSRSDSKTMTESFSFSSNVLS

| Ki | SMILES |
| --- | --- |
| > 10000 nM | COc1ccccc1[C@@H]1CC[C@@]2(CCCN[C@H]2c2ccccc2)N1 |
| 2 nM | COc1ccccc1[C@@H]1CC[C@@]2(CCCN[C@H]2c2ccccc2)NC1 |
